Results on one compound are retold here after ChEMBL document CHEMBL1149507, “Synthesis, structure, and bioactivity of N'-substituted benzylidene-3,4,5-trimethoxybenzohydrazide and 3-acetyl-2-substituted phenyl-5-(3,4,5-trimethoxyphenyl)-2,3-dihydro-1,3,4-oxadiazole derivatives” (Bioorg Med Chem Lett, 2006).

In test [1] the test system is PC-3. As to the kind of experiment: Antiproliferative activity against human PC3 cell line at 5 uM by MTT assay. Format: functional.
The test system of test [2] is BGC-823. In words: Antiproliferative activity against human BGC823 cell line at 1 uM by MTT assay. Format: functional.
The test system of test [3] is BGC-823. In words: Antiproliferative activity against human BGC823 cell line at 5 uM by MTT assay. Format: functional.
Test [4] concerns Bcap37. As to the kind of experiment: Antiproliferative activity against human Bcap37 cell line at 1 uM by MTT assay. Format: functional.
Test [5] deals with Bcap37. In words: Antiproliferative activity against human Bcap37 cell line at 5 uM by MTT assay. Format: functional.
In test [6] the test system is PC-3. In words: Antiproliferative activity against human PC3 cell line by MTT assay. Format: functional, cell-based.
The subject of test [7] is PC-3. In words: Antiproliferative activity against human PC3 cell line at 1 uM by MTT assay. Format: functional.

Each structure is given as a SMILES string.

`COc1cc(C2=NN(C(C)=O)C(c3cc(Cl)cc(Cl)c3)O2)cc(OC)c1OC` (configuration not stated): the figures for the inhibition at 5 µM in test [1], in test [3] and in test [5] were 93.9%, 6.6% and 1.3%, respectively. For the same compound, the inhibition at 1 µM was 0% in test [2], -1.1% in test [4] and 52.7% in test [7]. The IC50 in test [6] was 1700 nM.
